Key:
[1] = Stability in organic medium (dimethyl sulfoxide) by UV-Vis spectroscopy; type: physicochemical; details: band 357-425 nm (λmax in column head)
Description: (§1) The stability of the complexes 4-11 in organic and aqueous media was evaluated over 24 h by UV-Vis spectroscopy at room temperature, in dark, on a Jasco V-660 spectrometer using quartz cuvettes (1 cm optical path length). The electronic spectra (270-900 nm) were acquired at regular periods of time (0 h, 0.25 h, 0.5 h, 0.75 h, 1 h, 2 h, 3 h, 4 h, 5 h, 6 h, 24 h) for solutions of 100% dimethyl sulfoxide (complexes 4-11) and 5% dimethyl sulfoxide/95% Dulbecco's Modified Eagle Medium (complexes 4, 5 and 8-11) or 10% dimethyl sulfoxide/90% Dulbecco's Modified Eagle Medium (complexes 6 and 7) at concentrations ranging from 7.0×10^-5 M to 3.0×10^-4 M.

[2] = Stability in aqueous medium (dimethyl sulfoxide/Dulbecco's Modified Eagle Medium) by UV-Vis spectroscopy; type: physicochemical; details: 10% dimethyl sulfoxide/90% Dulbecco's Modified Eagle Medium; for Relative variation of the maximum absorbance of the π→π* transitions: band 292-296 nm (λmax in column head); for Relative variation of the maximum absorbance of the charge transfer bands: band 358-400 nm (λmax in column head)
Description: as §1

For `CC(=O)C1=C[CH]([Ru-]2([PH](c3ccccc3)(c3ccccc3)c3ccccc3)[n+]3cccc4ccc5ccc[n+]2c5c43)C=C1.O=S(=O)([O-])C(F)(F)F` (stereo not drawn) [compound 6], the “Relative variation of the maximum absorbance of the charge transfer bands” value ([1]; time 0 h) was 0.0%, the “Relative variation of the maximum absorbance of the charge transfer bands” value ([1]; time 0.25 h) was −0.1% and the “Relative variation of the maximum absorbance of the charge transfer bands” value ([1]; time 0.5 h) was 0.2%. For the same compound, the “Relative variation of the maximum absorbance of the charge transfer bands” value ([1]; time 0.75 h) was 0.0%, the “Relative variation of the maximum absorbance of the charge transfer bands” value ([1]; time 1 h) was 0.9% and the “Relative variation of the maximum absorbance of the charge transfer bands” value ([1]; time 2 h) was 2.6%. The “Relative variation of the maximum absorbance of the charge transfer bands” value ([1]; time 3 h) was 1.3%, the “Relative variation of the maximum absorbance of the charge transfer bands” value ([1]; time 4 h) was 1.5% and the “Relative variation of the maximum absorbance of the charge transfer bands” value ([1]; time 5 h) was −0.2%. For the same compound, the “Relative variation of the maximum absorbance of the charge transfer bands” value ([1]; time 6 h) was −0.3%, the “Relative variation of the maximum absorbance of the charge transfer bands” value ([1]; time 24 h) was 0.3% and the “Relative variation of the maximum absorbance of the π→π* transitions” value (from here on “Relative variation … of the π→π* transitions”) ([2]; time 0 h) was 0.0%. For the same compound, the “Relative variation of the maximum absorbance of the charge transfer bands” value ([2]; time 0 h) was 0.0%, the “Relative variation … of the π→π* transitions” value ([2]; time 0.25 h) was −0.4% and the “Relative variation of the maximum absorbance of the charge transfer bands” value ([2]; time 0.25 h) was 0.0%. For the same compound, the “Relative variation … of the π→π* transitions” value ([2]; time 0.5 h) was 0.4%, the “Relative variation of the maximum absorbance of the charge transfer bands” value ([2]; time 0.5 h) was 0.4% and the “Relative variation … of the π→π* transitions” value ([2]; time 0.75 h) was 0.3%. The “Relative variation of the maximum absorbance of the charge transfer bands” value ([2]; time 0.75 h) was 0.3%, the “Relative variation … of the π→π* transitions” value ([2]; time 1 h) was −0.2% and the “Relative variation of the maximum absorbance of the charge transfer bands” value ([2]; time 1 h) was 0.0%. The “Relative variation … of the π→π* transitions” value ([2]; time 2 h) was 1.0%, the “Relative variation of the maximum absorbance of the charge transfer bands” value ([2]; time 2 h) was 0.6% and the “Relative variation … of the π→π* transitions” value ([2]; time 3 h) was 2.0%. The “Relative variation of the maximum absorbance of the charge transfer bands” value ([2]; time 3 h) was 0.8%, the “Relative variation … of the π→π* transitions” value ([2]; time 4 h) was 2.1% and the “Relative variation of the maximum absorbance of the charge transfer bands” value ([2]; time 4 h) was 0.8%. For the same compound, the “Relative variation … of the π→π* transitions” value ([2]; time 5 h) was 1.3%, the “Relative variation of the maximum absorbance of the charge transfer bands” value ([2]; time 5 h) was 0.4% and the “Relative variation … of the π→π* transitions” value ([2]; time 6 h) was 1.5%. The “Relative variation of the maximum absorbance of the charge transfer bands” value ([2]; time 6 h) was 0.2%, the “Relative variation … of the π→π* transitions” value ([2]; time 24 h) was 5.3% and the “Relative variation of the maximum absorbance of the charge transfer bands” value ([2]; time 24 h) was 1.8%.
For `CC(=O)C1=C[CH]([Ru-]2([PH](c3ccccc3)(c3ccccc3)c3ccccc3)[n+]3cccc4c5nccnc5c5ccc[n+]2c5c43)C=C1.O=S(=O)([O-])C(F)(F)F` (stereo not drawn) [compound 7], the “Relative variation of the maximum absorbance of the charge transfer bands” value ([1]; time 0 h) was 0.0%, the “Relative variation of the maximum absorbance of the charge transfer bands” value ([1]; time 0.25 h) was 0.0% and the “Relative variation of the maximum absorbance of the charge transfer bands” value ([1]; time 0.5 h) was −0.1%. The “Relative variation of the maximum absorbance of the charge transfer bands” value ([1]; time 0.75 h) was −0.1%, the “Relative variation of the maximum absorbance of the charge transfer bands” value ([1]; time 1 h) was −0.1% and the “Relative variation of the maximum absorbance of the charge transfer bands” value ([1]; time 2 h) was −0.3%. For the same compound, the “Relative variation of the maximum absorbance of the charge transfer bands” value ([1]; time 3 h) was −0.2%, the “Relative variation of the maximum absorbance of the charge transfer bands” value ([1]; time 4 h) was −0.5% and the “Relative variation of the maximum absorbance of the charge transfer bands” value ([1]; time 5 h) was −0.3%. For the same compound, the “Relative variation of the maximum absorbance of the charge transfer bands” value ([1]; time 6 h) was −0.4%, the “Relative variation of the maximum absorbance of the charge transfer bands” value ([1]; time 24 h) was −0.3% and the “Relative variation … of the π→π* transitions” value ([2]; time 0 h) was 0.0%. The “Relative variation of the maximum absorbance of the charge transfer bands” value ([2]; time 0 h) was 0.0%, the “Relative variation … of the π→π* transitions” value ([2]; time 0.25 h) was 0.0% and the “Relative variation of the maximum absorbance of the charge transfer bands” value ([2]; time 0.25 h) was 0.3%. The “Relative variation … of the π→π* transitions” value ([2]; time 0.5 h) was 0.1%, the “Relative variation of the maximum absorbance of the charge transfer bands” value ([2]; time 0.5 h) was 0.4% and the “Relative variation … of the π→π* transitions” value ([2]; time 0.75 h) was 0.3%. The “Relative variation of the maximum absorbance of the charge transfer bands” value ([2]; time 0.75 h) was 0.6%, the “Relative variation … of the π→π* transitions” value ([2]; time 1 h) was 0.1% and the “Relative variation of the maximum absorbance of the charge transfer bands” value ([2]; time 1 h) was 0.5%. For the same compound, the “Relative variation … of the π→π* transitions” value ([2]; time 2 h) was 0.1%, the “Relative variation of the maximum absorbance of the charge transfer bands” value ([2]; time 2 h) was 0.5% and the “Relative variation … of the π→π* transitions” value ([2]; time 3 h) was 0.0%. The “Relative variation of the maximum absorbance of the charge transfer bands” value ([2]; time 3 h) was 0.4%, the “Relative variation … of the π→π* transitions” value ([2]; time 4 h) was −0.3% and the “Relative variation of the maximum absorbance of the charge transfer bands” value ([2]; time 4 h) was 0.5%. The “Relative variation … of the π→π* transitions” value ([2]; time 5 h) was −0.2%, the “Relative variation of the maximum absorbance of the charge transfer bands” value ([2]; time 5 h) was 0.5% and the “Relative variation … of the π→π* transitions” value ([2]; time 6 h) was 0.0%. For the same compound, the “Relative variation of the maximum absorbance of the charge transfer bands” value ([2]; time 6 h) was 0.4%, the “Relative variation … of the π→π* transitions” value ([2]; time 24 h) was 0.3% and the “Relative variation of the maximum absorbance of the charge transfer bands” value ([2]; time 24 h) was 1.3%.

Reference: patent US20250195463A1, “ORGANOMETALLIC COMPLEX, CONTROLLED-RELEASE MULTI-FUNCTIONAL DRUG, PHARMACEUTICAL COMPOSITION, PROCESSES FOR THE PREPARATION THEREOF AND THEIR USE” (FACULDADE DE CIÊNCIAS DA UNIVERSIDADE DE LISBOA, priority 2022, published 2025)
